Test results taken from patent publication US8268827B2, “Pyridazinone derivatives as PARP inhibitors” (Istituto di Ricerche di Biologia Molecolare P. Angeletti …, priority 2007, dated 2012).
Counter-ions that a name gives are not always drawn. Like-named read-outs stand apart in the source and are kept apart here.

How the values were obtained:
PARP-1 [1] = target: T1, PARP-1 (Homo sapiens, UniProt P09874); experiment: PARP-1 TCA assay (inhibitory activity on human PARP-1); type: biochemical; details: human PARP-1, TCA assay
T1 construct: purchased Trevigen 4668-500-01
T1 sequence (P09874 whole entry): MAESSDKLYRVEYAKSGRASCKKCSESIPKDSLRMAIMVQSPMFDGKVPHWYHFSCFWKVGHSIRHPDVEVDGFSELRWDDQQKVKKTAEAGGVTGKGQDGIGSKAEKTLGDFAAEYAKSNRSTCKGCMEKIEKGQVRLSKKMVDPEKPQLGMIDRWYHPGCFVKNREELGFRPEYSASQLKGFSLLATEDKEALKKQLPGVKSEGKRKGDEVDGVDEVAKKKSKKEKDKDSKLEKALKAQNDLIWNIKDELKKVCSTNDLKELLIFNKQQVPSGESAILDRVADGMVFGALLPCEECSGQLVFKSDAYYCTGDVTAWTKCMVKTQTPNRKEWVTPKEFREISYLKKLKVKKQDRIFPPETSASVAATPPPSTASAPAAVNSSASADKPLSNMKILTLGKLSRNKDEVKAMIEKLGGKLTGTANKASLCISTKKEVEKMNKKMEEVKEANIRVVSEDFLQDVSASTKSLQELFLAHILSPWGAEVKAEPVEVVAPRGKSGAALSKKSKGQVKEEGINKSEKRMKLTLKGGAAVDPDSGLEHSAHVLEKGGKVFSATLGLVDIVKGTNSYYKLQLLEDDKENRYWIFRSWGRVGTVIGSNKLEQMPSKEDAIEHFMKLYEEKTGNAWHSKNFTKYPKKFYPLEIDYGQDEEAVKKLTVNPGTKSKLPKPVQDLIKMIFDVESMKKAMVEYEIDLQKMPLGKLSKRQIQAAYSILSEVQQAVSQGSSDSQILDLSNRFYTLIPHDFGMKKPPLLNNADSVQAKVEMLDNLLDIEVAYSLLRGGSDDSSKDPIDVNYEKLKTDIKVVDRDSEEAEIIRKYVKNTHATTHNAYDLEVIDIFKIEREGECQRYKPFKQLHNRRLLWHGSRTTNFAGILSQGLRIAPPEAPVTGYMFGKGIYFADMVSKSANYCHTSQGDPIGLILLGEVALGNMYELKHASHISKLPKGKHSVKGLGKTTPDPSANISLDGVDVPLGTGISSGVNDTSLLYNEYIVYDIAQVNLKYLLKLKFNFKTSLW
Experimental: Inhibitory Activity on Human PARP-1
The study was designed to determine the potency of compounds for inhibiting poly(ADP-ribosylation) by hPARP1 upon presentation of a nicked DNA (i.e. Activated Calf Thymus). The IC50 was determined in a TCA assay looking at the incorporation of [^3H]-NAD into the growing Poly-ADP-ribose (PAR) polymers and detection of the radioactivity incorporated in a polymer by scintillation counting.
A 96 wells polypropylene microplate was prepared with serial dilutions of compounds (10 point over a 0.1 nM-50 nM concentration range 5% DMSO, 5 uL) or 5% DMSO. The enzymatic reaction was conducted in the presence of 25 mM Tris-HCl pH8.0, 1 mM MgCl2, 50 mM KCl, 1 mM Spermine, 0.01% Nonidet P-40, 1 mM DTT, 1 ug/ml activated Calf Thymus DNA (Amersham Biosciences 27-4575) and 1 nM of human PARP-1 enzyme (Trevigen 4668-500-01). The reaction was initiated by adding 1 ug/ml Activated Calf Thymus DNA (Amersham Biosciences 27-4575), 0.4 ul (2.2×10^5DPM) of [^3H]-NAD (250uCi/ml, Perkin Elmer NET-443H) and 1.5 uM NAD (Sigma #N-1511) in a total reaction volume of 50 ul. After 2 hours incubation at room temperature, the reaction was stopped by the addition of TCA (50 uL, 20%) and NaPPi (20 mM) and incubated for 10 min over ice. The resulting precipitate was filtered on Unifilter GF/B microplate (Perkin Elmer) and washed four times with 2.5% TCA using Harvester Filtermate 196 (Perkin Elmer). After addition of 50 ul of Microscint 20 (Perkin Elmer) the amount of radioactivity incorporated into the PARP polymers was read for each well on Perkin Elmer Top Count. IC50 was calculated using 4P logistic fitting with ADA software based on the residual enzyme activity in the presence of increasing concentrations of compounds.

[2] = tested on: BRCA-1 silenced HeLa cells (HeLa shBRCA1-GFP); experiment: Proliferation assay in BRCA-1 silenced HeLa cells; type: cell-based; details: Homo sapiens; for inhibition at 5 µM: read-out: % inh @ 5 uM (BRCA1-)
Outline: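 HeLa cells with lentiviral shRNA BRCA1 knockdown (>80%), compared with control-vector HeLa, seeded at 300 cells/well. Compound exposure lasted 168 h at 37° C. Viability was read as resazurin-to-resorufin fluorescence (ex 550/em 590 nm).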

[3] = tested on: ischemia and reperfusion of the heart; details: rabbits, cited from earlier work
PARP-1 [4] = target: T1, PARP-1; experiment: PARP-1 SPA assay; type: biochemical
Outline: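 PARP-1 reaction in Tris pH 8 buffer with MgCl2, spermine, KCl, activated calf thymus DNA and a mix of [3H]-NAD, NAD and biotinylated NAD, 2 h at RT. Stopped with EDTA/streptavidin SPA beads and poly(ADP-ribose) incorporation counted by scintillation.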

[5] = BRCA-1 silenced HeLa cells, read-out: BRCA1- CC50
[6] = BRCA1 silenced HeLa cells, 168 hours, read-out: CC50 in the BRCA1 silenced HeLa cells

SMILES	IC50 (PARP-1 [4]) [nM]	CC50 [2, 6] [nM]	other results
Cc1c(Cc2ccc(F)c(C(=O)N3CCN(C4CCCCC4)C(=O)C3)c2)n[nH]c(=O)c1C [drawing 29]			IC50 (PARP-1 [1]): 0.36 nM; CC50 [2, 5]: 7 nM
NC(=O)c1cccc(N)c1 [3-amino-benzamide]			reduction in infarct size in the heart ([3]; single injection 10 mg/kg, one minute before occlusion or one minute before reperfusion): 32-42%
Cc1c(Cc2ccc(F)c(C(=O)N3CCN(c4ccc(F)cc4)C(=O)C3)c2)n[nH]c(=O)c1C [drawing 26]			IC50 (PARP-1 [1]): 0.87 nM; CC50 [2, 5]: 96 nM
Cc1c(Cc2ccc(F)c(C(=O)N3CCN(C4CCCCC4)CC3)c2)n[nH]c(=O)c1C			IC50 (PARP-1 [1]): 7.4 nM; CC50 [2, 5]: 400 nM
Cc1c(Cc2ccc(F)c(C(=O)N3CCN(c4ccccc4)C(=O)C3)c2)n[nH]c(=O)c1C [drawing 25]			IC50 (PARP-1 [1]): 1 nM; CC50 [2, 5]: 18 nM
Cc1c(Cc2ccc(F)c(C(=O)N3CCN(c4ccc(F)cc4)CC3)c2)n[nH]c(=O)c1C			IC50 (PARP-1 [1]): 20 nM; inhibition at 5 µM ([2]; BRCA-1 silenced HeLa cells): 52%
Oc1cccc2c(O)nccc12 [1,5-dihydroxyisoquinoline]			reduction in infarct size ([3]; single injection 1 mg/kg): 38-48%
Cc1c(Cc2ccc(F)c(C(=O)N3CC=C(c4ccc(F)cc4)CC3)c2)n[nH]c(=O)c1C			IC50 (PARP-1 [1]): 20 nM; inhibition at 5 µM ([2]; BRCA-1 silenced HeLa cells): 45%
Cc1c(Cc2ccc(F)c(C(=O)N3CC(=O)N4CCCCC4C3)c2)n[nH]c(=O)c1C (centres unmarked) [Example 32, 6-{4-Fluoro-3-[(4-oxooctahydro-2H-pyrido[1,2-a]pyrazin-2-yl)carbonyl]benzyl}-4,5-dimethyl-3-oxo-2,3-dihydropyridazin-1-ium trifluoroacetate]	5 to 25	< 50	
O=C(c1cc(Cc2cc(C(F)(F)F)c(=O)[nH]n2)ccc1F)N1CC(=O)N2CCCCC2C1 (racemic) [Example 91, 2-(2-Fluoro-5-{[6-oxo-5-(trifluoromethyl)-1,6-dihydropyridazin-3-yl]methyl}benzoyl)octahydro-4H-pyrido[1,2-a]pyrazin-4-one]	5 to 25	50 to 500	
COCCN1CCN(C(=O)c2cc(Cc3n[nH]c(=O)c(C)c3C)ccc2F)CC1=O [Example 170, 6-(4-Fluoro-3-{[4-(2-methoxyethyl)-3-oxopiperazin-1-yl]carbonyl}benzyl)-4,5-dimethylpyridazin-3(2H)-one]	5 to 25	< 5000	
CCc1cc(Cc2ccc(F)c(C(=O)N3CCN([C@@H]4CCCOC4)C(=O)C3)c2)n[nH]c1=O [Example 145, 4-ethyl-6-[4-fluoro-3-({3-oxo-4-[(3R)-tetrahydro-2H-pyran-3-yl]piperazin-1-yl}carbonyl)benzyl]pyridazin-3(2H)-one]	5 to 25	50 to 500	
Cc1c(Cc2ccc(F)c(C(=O)N3CC(=O)N(c4ccccc4)[C@H](C)C3)c2)n[nH]c(=O)c1C (single isomer, unassigned) [Example 78 (LL4B)]	< 5	< 50	
COc1ccc(CN2C(=O)CN(C(=O)c3cc(Cc4n[nH]c(=O)c(C)c4C)ccc3F)CC2C)cc1 (centres unmarked) [Example 138, 6-(4-fluoro-3-{[4-(4-methoxybenzyl)-3-methyl-5-oxopiperazin-1-yl]carbonyl}benzyl)-4,5-dimethyl-3-oxo-2,3-dihydropyridazin-1-ium trifluoroacetate]	5 to 25	50 to 500	
Cc1c(Cc2ccc(F)c(C(=O)N3CC(=O)N(c4ccccc4)[C@@H](C)C3)c2)n[nH]c(=O)c1C (single isomer, unassigned) [78 (LL4A)]	5 to 25	50 to 500	
Cc1c(Cc2ccc(F)c(C(=O)N3CCN(C4CCCC(C)(C)C4)C(=O)C3)c2)n[nH]c(=O)c1C (centres unmarked) [Example 51, 6-(3-{[4-(3,3-Dimethylcyclohexyl)-3-oxopiperazin-1-yl]carbonyl}-4-fluorobenzyl)-4,5-dimethyl-3-oxo-2,3-dihydropyridazin-1-ium trifluoroacetate]	5 to 25	50 to 500	
O=C(c1cc(Cc2cc(C(F)(F)C(F)(F)F)c(=O)[nH]n2)ccc1F)N1CCN(C2CCCC2)C(=O)C1 [Example 81, 6-{3-[(4-Cyclopentyl-3-oxopiperazin-1-yl)carbonyl]-4-fluorobenzyl}-4-(pentafluoroethyl)pyridazin-3(2H)-one]	5 to 25	50 to 500	
O=C(c1cc(Cc2cc(C(F)(F)F)c(=O)[nH]n2)ccc1F)N1CCN(C2CCCC2)C(=O)C1 [Example 33, 6-{3-[(4-Cyclopentyl-3-oxopiperazin-1-yl)carbonyl]-4-fluorobenzyl}-3-oxo-4-(trifluoromethyl)-2,3-dihydropyridazin-1-ium trifluoroacetate]	< 5	50 to 500	
Cc1c(Cc2ccc(F)c(C(=O)N3CC(=O)N(c4ccccc4)C(C)(C)C3)c2)n[nH]c(=O)c1C [Example 77, 6-{3-[(3,3-Dimethyl-5-oxo-4-phenylpiperazin-1-yl)carbonyl]-4-fluorobenzyl}-4,5-dimethylpyridazin-3(2H)-one]	< 5	< 50	
O=C(c1cc(Cc2cc(C(F)(F)F)c(=O)[nH]n2)ccc1F)N1CC(=O)N2CCCC[C@H]2C1 (single isomer, unassigned) [92 (ZZ1)]	< 5	< 5000	
Cc1c(Cc2ccc(F)c(C(=O)N3CCN(C4CCOC4)C(=O)C3)c2)n[nH]c(=O)c1C(F)(F)F (centres unmarked) [Example 142, 3-(4-Fluoro-3-{[3-oxo-4-(tetrahydrofuran-3-yl)piperazin-1-yl]carbonyl}benzyl)-4-methyl-6-oxo-5-(trifluoromethyl)-1,6-dihydropyridazin-1-ium trifluoroacetate]	< 5	< 50	
CCN1C(=O)CN(C(=O)c2cc(Cc3n[nH]c(=O)c(C(F)(F)F)c3C)ccc2F)CC1C (centres unmarked) [Example 147, 3-{3-[(4-Ethyl-3-methyl-5-oxopiperazin-1-yl)carbonyl]-4-fluorobenzyl}-4-methyl-6-oxo-5-(trifluoromethyl)-1,6-dihydropyridazin-1-ium trifluoroacetate]	5 to 25	< 50	
Cc1c(Cc2ccc(F)c(C(=O)N3CCN(c4cnc5ccccc5c4)C(=O)C3)c2)n[nH]c(=O)c1C [Example 60, 6-{4-Fluoro-3-[(3-oxo-4-quinolin-3-ylpiperazin-1-yl)carbonyl]benzyl}-4,5-dimethylpyridazin-3(2H)-one]	< 5	< 50	
Cc1c(Cc2ccc(F)c(C(=O)N3CC(=O)N(c4ccc(F)cc4)C(C)C3)c2)n[nH]c(=O)c1C (racemic) [Example 79, 3-{4-Fluoro-3-[4-(4-fluoro-phenyl)-3-methyl-5-oxo-piperazine-1-carbonyl]-benzyl}-4,5-dimethyl-6-oxo-1,6-dihydro-pyridazin-1-ium trifluoroacetate]	< 5	< 50	
Cc1c(Cc2ccc(F)c(C(=O)N3CC(=O)N(C4CCCC4)C(CC(C)C)C3)c2)n[nH]c(=O)c1C (centres unmarked) [Example 185, 6-{3-[(4-Cyclopentyl-3-isobutyl-5-oxopiperazin-1-yl)carbonyl]-4-fluorobenzyl}-4,5-dimethylpyridazin-3(2H)-one]	25 to 150	< 5000	
Cc1c(Cc2ccc(F)c(C(=O)N3CCN(c4ccc(S(C)(=O)=O)cc4)C(=O)C3)c2)n[nH]c(=O)c1C [Example 95, 3-[4-Fluoro-3-({4-[4-(methylsulfonyl)phenyl]-3-oxopiperazin-1-yl}carbonyl)benzyl]-4,5-dimethyl-6-oxo-1,6-dihydropyridazin-1-ium trifluoroacetate]	< 5	50 to 500	
